The values that follow are results of earlier work, collected in patent publication US20250057824A1, “NOSE-TO-BRAIN DELIVERY FORMULATION OF NIMODIPINE, PREPARATION AND USE” (Nasal-Phyto (Shanghai) Pharmaceutical Technology Co., Ltd., priority 2023, published 2025).

Converted amounts (≈) assume the structure as drawn.

As for `COCCOC(=O)C1=C(C)NC(C)=C(C(=O)OC(C)C)C1c1cccc([N+](=O)[O-])c1` (stereo not shown) [Nimodipine], the solubility in water is 2 µg/mL (≈ 4.78 µM).
